These results are taken from patent EP4813403A1, “USE OF GLP-1R/GIPR DOUBLE-TARGET AGONIST IN PREPARING ANIMAL DRUG” (Hangzhou Zhongmeihuadong Pharmaceutical Co., Ltd., priority 2023, dated 2025).

For series [1], the system named is db/db mice. The series can be described thus: Pharmacodynamic effects in db/db mice, single subcutaneous administration (blood glucose). Format: in vivo. The following applies: single s.c. 10 nmol/kg; for Hypoglycemic Duration: Group 2, longest time with p<0.05 vs. vehicle. The procedure:
In this study, 8-9 week old male db/db mice were used. The db/db mice were placed in an individual ventilated cage (IVC) facility with a controlled temperature (20-26°C) and humidity (40-70%) and a controlled 12h:12 h light-dark cycle. The mice can receive food and water ad libitum. Blood was sampled at the tail tip, and the random base blood glucose was measured by a Roche blood glucose meter. The mice were randomly divided into groups according to the random initial fasting blood glucose and initial body weight (n=6/group), and each group had similar body weight and blood glucose.
After a single subcutaneous administration, the random base blood glucoses were recorded at the set time point (0 to 120 hours, the recording of the random base blood glucose was stopped until there was no difference between the random base blood glucose of the compound and that of the vehicle group), and the daily body weight and food intake were also recorded. The data results were statistically analyzed using GraphPad Prism8, and the statistical differences among the groups were analyzed following a T-Test. Significant differences were identified at p<0.05.
Hypoglycemic Duration: the longest time during which the random base blood glucose of the compound has a significant difference (p<0.05) vs. the vehicle group. Table 13. Hypoglycemic Duration of the Compounds

Series [2] can be described thus: Pharmacokinetics following single administration in SD rats. The following applies: male, Sprague-Dawley, rat, in vivo, sc. The protocol: The compound was administrated to male SD rats (230-268 g, n=3) at a dose of 50.0 nmol/kg (s.c.) or 25.0 nmol/kg (i.v.). […] 30.0 μL of thawed plasma sample was taken. 150 μL of acetonitrile solution (containing 5 ng·mL^-1 Verapamil , 50 ng·mL^-1 Glibenclamide, 200 ng·mL^-1 Tolbutamide and 200 ng·mL^-1 Diclofenac) were added to precipitate protein. The mixture was vortexed for 5 minutes, and centrifuged at 3700 rpm for 8 minutes. 70.0 μL of the supernatant was taken, into which 70.0 μL of 0.5% aqueous formic acid solution was added. The mixture was vortexed for 5 minutes. 15 μL of the mixture solution was sampled and injected into the LC-MS/MS to determine the drug concentration in plasma. 20.0 μL of thawed plasma sample was taken. 60 μL of acetonitrile solution (containing 5 ng·mL^-1 Verapamil, 50 ng·mL^-1 Glibenclamide, 200 ng·mL^-1 Tolbutamide and 200 ng·mL^-1 Diclofenac) were added to precipitate protein. […] The mixture was vortexed for 10 minutes. 10.0 μL of the mixture solution was sampled and injected into the LC-MS/MS to determine the drug concentration in plasma. 30.0 μL of thawed plasma sample was taken. 150 μL of acetonitrile solution (containing 5 ng·mL^-1 Verapamil, 50 ng·mL^-1 Glibenclamide, 200 ng·mL^-1 Tolbutamide and 200 ng·mL^-1 Diclofenac) were added to precipitate protein. The mixture was vortexed for 5 minutes, and centrifuged at 3700 rpm for 8 minutes. 70.0 μL of the supernatant was taken, into which 70.0 μL of 0.5% aqueous formic acid solution was added. The mixture was vortexed for 5 minutes. 10.0 μL of the mixture solution was sampled and injected into the LC-MS/MS to determine the drug concentration in plasma. […] Table 5 Pharmacokinetic Parameters after Subcutaneous Injection of Different Polypeptide Compounds to Rats

For series [3], the target named is T1, human GIP Receptor (Homo sapiens, UniProt P48546).
T1 construct: expressed in transfected cells
T1 sequence (P48546 22-466): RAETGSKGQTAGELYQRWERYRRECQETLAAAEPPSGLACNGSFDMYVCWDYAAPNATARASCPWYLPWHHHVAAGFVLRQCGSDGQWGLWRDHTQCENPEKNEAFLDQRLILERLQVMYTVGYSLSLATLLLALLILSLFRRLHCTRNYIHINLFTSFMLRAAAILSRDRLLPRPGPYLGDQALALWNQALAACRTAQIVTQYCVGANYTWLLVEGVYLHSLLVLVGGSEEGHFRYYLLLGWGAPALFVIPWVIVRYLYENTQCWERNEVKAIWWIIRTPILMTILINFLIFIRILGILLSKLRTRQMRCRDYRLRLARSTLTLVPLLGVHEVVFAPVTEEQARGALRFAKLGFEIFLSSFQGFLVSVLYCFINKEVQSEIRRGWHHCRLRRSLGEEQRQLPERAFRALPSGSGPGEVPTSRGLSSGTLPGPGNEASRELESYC
Nature of the series: In vitro binding activity to human GIP receptor ([125I]GIP displacement, crude cell membranes). The following applies: ratio of the Ki value of the endogenous ligand to the Ki value of the test compound; larger ratio = stronger binding. The procedure: 89 µL of membrane dissolved in binding buffer (50 mM Hepes, pH 7.4, 5 mM MgCl2 , 5 mM EDTA, 0.005% TWEEN, 0.005% HSA) was transferred to a 96-well test plate (5 µg/well). The compound was serially diluted in DMSO, and then, 1 µL of the diluted compound or 100% DMSO was added to the test plate containing the membrane solution. 10 µL of [^125I] […] The test plate was left at room temperature for 90 minutes. The membrane complexes were harvested into a GF/B plate pre-coated with 0.5% PEI by using a Cell Harvester, and washed for 3 times with 500 µL of pre-cooled elution buffer (50 mM Hepes, pH 7.4, 500 mM NaCl) at 4°C. After drying at 37°C for 2 hours, 50 µL of scintillation fluid was added to each well. The plate was read with a MicroBeta2 scintillation counter after sealing and settling for at least 1 hour so as to determine the membrane bound radioligand level.
hGIP and the compound of the present invention were dissolved in DMSO and stored at -80°C. 98 µL of membrane dissolved in binding buffer (50 mM HEPES pH 7.4, 5 mM MgCl2, 1 mM CaCl2, 0.1% BSA, 0.005% Tween-20) was transferred to a 96-well test plate (15 µg/well). The compound was serially diluted in DMSO, and then, 2 µL of the diluted compounds or 100% DMSO was added to the test plate containing the membrane solution. […] The test plate was left at room temperature for 90 minutes. The membrane complexes were harvested into a GF/B plate pre-coated with 0.5% PEI by using a Cell Harvester, and washed for 3 times with 500 µL of pre-cooled elution buffer (50 mM Tris-HCl pH 7.4, 125 mM NaCl) at 4°C. After drying at 37°C for 2 hours, 50 µL of scintillation fluid was added to each well. The plate was read with a MicroBeta2 scintillation counter after sealing and settling for at least 1 hour so as to determine the membrane bound radioligand level.
The IC50 concentration was converted to Ki (Ki was the inhibition constant) using the Cheng-Prusoff equation. Table 1. Receptor Binding Affinity, Ki Ratio

Setting [4] is: SD rats, subcutaneous injection, 50 nmol/kg.

SMILES strings stand for the structures. Like-named read-outs stand apart in the source and are kept apart here.

Broadly, the Tmax is the time at which the peak concentration occurs. Turning to `CC[C@H](C)[C@H](NC(=O)C(C)(C)NC(=O)[C@H](Cc1ccc(O)cc1)NC(=O)[C@H](CC(=O)O)NC(=O)[C@H](CO)NC(=O)[C@@H](NC(=O)C(C)(Cc1ccccc1)NC(=O)[C@@H](NC(=O)CNC(=O)[C@H](CCC(=O)O)NC(=O)C(C)(C)NC(=O)[C@@H](N)Cc1ccc(O)cc1)[C@@H](C)O)[C@@H](C)O)C(=O)NC(C)(C)C(=O)N[C@@H](CC(C)C)C(=O)N[C@@H](CC(=O)O)C(=O)N[C@@H](CCCCN)C(=O)N[C@@H](CCC(N)=O)C(=O)N[C@@H](C)C(=O)N[C@@H](CCC(N)=O)C(=O)N[C@@H](C)C(=O)N[C@@H](CCC(=O)O)C(=O)N[C@@H](Cc1ccccc1)C(=O)N[C@H](C(=O)N[C@@H](CCCCN)C(=O)N[C@@H](Cc1c[nH]c2ccccc12)C(=O)N[C@@H](CC(C)C)C(=O)N[C@@H](CC(C)C)C(=O)N[C@@H](CCCCNC(=O)COCCOCCNC(=O)COCCOCCNC(=O)COCCOCCNC(=O)CC[C@H](NC(=O)CCCCCCCCCCCCCCCCCCCCC(=O)O)C(=O)O)C(=O)NCC(=O)NCC(=O)N1CCC[C@H]1C(=O)N[C@@H](CO)C(=O)N[C@@H](CO)C(=O)NCC(=O)N[C@@H](C)C(=O)N1CCC[C@H]1C(=O)N1CCC[C@H]1C(=O)N1CCC[C@H]1C(=O)N[C@@H](CO)C(=O)N[C@@H](CCCCN)C(N)=O)C(C)C` (stereo partly shown) [Compound P020], in series [1], the “inhibition of the blood glucose AUC, times of that of Tirzepatide” value is on record as 2.0 times and the “Hypoglycemic Duration” value was determined as 104 h. In series [2], the Tmax is 24 h and the half-life is 1070 ± 34.2 min. The “GIPR Ki ratio” value in series [3] was found to be 0.05.

In general, AUC(0-inf) refers to the area under the concentration-time curve extrapolated to infinity. In general, AUC(0-t) refers to exposure summed from dosing to a finite time, without extrapolation to infinity. Lower therefore signals low exposure. The Cmax is the highest concentration seen after dosing. Regarding `CC[C@H](C)[C@H](NC(=O)C(C)(C)NC(=O)[C@H](Cc1ccc(O)cc1)NC(=O)[C@H](CC(=O)O)NC(=O)[C@H](CO)NC(=O)[C@@H](NC(=O)C(C)(Cc1ccccc1)NC(=O)[C@@H](NC(=O)CNC(=O)[C@H](CCC(=O)O)NC(=O)C(C)(C)NC(=O)[C@@H](N)Cc1ccc(O)cc1)[C@@H](C)O)[C@@H](C)O)C(=O)NC(C)(C)C(=O)N[C@@H](CC(C)C)C(=O)N[C@@H](CC(=O)O)C(=O)N[C@@H](CCCCN)C(=O)N[C@@H](CCC(N)=O)C(=O)N[C@@H](C)C(=O)N[C@@H](CCC(N)=O)C(=O)N[C@@H](C)C(=O)N[C@@H](CCC(=O)O)C(=O)N[C@@H](Cc1ccccc1)C(=O)N[C@H](C(=O)N[C@@H](CCCCNC(=O)COCCOCCNC(=O)COCCOCCNC(=O)COCCOCCNC(=O)CC[C@H](NC(=O)CCCCCCCCCCCCCCCCCCCCC(=O)O)C(=O)O)C(=O)N[C@@H](Cc1c[nH]c2ccccc12)C(=O)N[C@@H](CC(C)C)C(=O)N[C@@H](CC(C)C)C(=O)N[C@@H](CCCCN)C(=O)NCC(=O)NCC(=O)N1CCC[C@H]1C(=O)N[C@@H](CO)C(=O)N[C@@H](CO)C(=O)NCC(=O)N[C@@H](C)C(=O)N1CCC[C@H]1C(=O)N1CCC[C@H]1C(=O)N1CCC[C@H]1C(=O)N[C@@H](CO)C(=O)N[C@@H](CCCCN)C(N)=O)C(C)C` (stereo partly shown) [Compound P016], in series [1], the “inhibition of the blood glucose AUC, times of that of Tirzepatide” value is 2.2 times and the “Hypoglycemic Duration” value is listed as 104 h. For the same compound, in series [2] (setting [4]), the AUC(0-inf) came out at 5.07 ± 0.262 µM·h, the AUC(0-t) amounted to 4.84 ± 0.27 µM·h and the concentration peaked (Cmax) at 119 ± 7 nM. Besides, in series [2] (SD rats, subcutaneous injection, 50 nmol/kg, read-out: T1/2 (converted)), the half-life is 846 ± 9.18 min. For the same compound, in series [2] (SD rats, subcutaneous injection, 50 nmol/kg, read-out: Tmax), the Tmax came out at 24 h. Moreover, in series [3], the “GIPR Ki ratio” value is on record as 0.11.
